# Several values for one entry are separate records, joined by “and”; a condition that tells them apart may be missing. Equal values may be shown once.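 Assay format: 96-well plates, 48-hour exposure. GI50 is the concentration that inhibits growth by half. TGI marks complete inhibition of growth.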
# What was measured:
# Test in all cases: NCI anticancer screen, dose series, 48 h
# HL-60(TB) leukemia = system: HL-60(TB) leukemia
# HOP-92 NSCLC = system: HOP-92 NSCLC
# SW-620 colon = system: SW-620 colon
# NCI-H23 lung = system: NCI-H23 lung
# K-562 leukemia = system: K-562 leukemia
# RPMI-8226 leukemia = system: RPMI-8226 leukemia
# HS 578T breast = system: HS 578T breast
# CCRF-CEM leukemia = system: CCRF-CEM leukemia
# 786-0 renal = system: 786-0 renal
# UO-31 renal = system: UO-31 renal
# MOLT-4 leukemia = system: MOLT-4 leukemia
# PC-3 prostate = system: PC-3 prostate
# DU-145 prostate = system: DU-145 prostate
# ACHN renal = system: ACHN renal
# LOX IMVI melanoma = system: LOX IMVI melanoma
# SR leukemia = system: SR leukemia
# A498 renal = system: A498 renal
# NCI-H226 lung = system: NCI-H226 lung
# NCI-H522 lung = system: NCI-H522 lung
# SNB-19 CNS = system: SNB-19 CNS
# BT-549 breast = system: BT-549 breast
# IGROV1 ovarian = system: IGROV1 ovarian
# OVCAR-3 ovarian = system: OVCAR-3 ovarian
# HCC-2998 colon = system: HCC-2998 colon
# SK-MEL-2 melanoma = system: SK-MEL-2 melanoma
# SF-268 CNS = system: SF-268 CNS
# OVCAR-4 ovarian = system: OVCAR-4 ovarian
# KM12 colon = system: KM12 colon
# HCT-15 colon = system: HCT-15 colon
# MALME-3M melanoma = system: MALME-3M melanoma
# M14 melanoma = system: M14 melanoma
# HOP-62 NSCLC = system: HOP-62 NSCLC
# EKVX NSCLC = system: EKVX NSCLC
# CAKI-1 renal = system: CAKI-1 renal
# RXF 393 renal = system: RXF 393 renal
# TK-10 renal = system: TK-10 renal
# HT29 colon = system: HT29 colon
# SF-295 CNS = system: SF-295 CNS
# SK-MEL-28 melanoma = system: SK-MEL-28 melanoma
# NCI-H460 lung = system: NCI-H460 lung
# COLO 205 colon = system: COLO 205 colon
# A549 NSCLC = system: A549 NSCLC
# U251 CNS = system: U251 CNS
# NCI/ADR-RES ovarian = system: NCI/ADR-RES ovarian
# SN12C renal = system: SN12C renal
# SK-OV-3 ovarian = system: SK-OV-3 ovarian
# HCT-116 colon = system: HCT-116 colon
# UACC-62 melanoma = system: UACC-62 melanoma
# MCF7 breast = system: MCF7 breast
# SK-MEL-5 melanoma = system: SK-MEL-5 melanoma
# OVCAR-5 ovarian = system: OVCAR-5 ovarian
# MDA-MB-231 breast = system: MDA-MB-231 breast
# UACC-257 melanoma = system: UACC-257 melanoma
# OVCAR-8 ovarian = system: OVCAR-8 ovarian
# SF-539 CNS = system: SF-539 CNS
# T-47D breast = system: T-47D breast
# SNB-75 CNS = system: SNB-75 CNS
# MDA-MB-435 = system: MDA-MB-435
structure (smiles),measurement,setting,value
c1ccc(-c2c(-c3ccccc3)[n+](Cc3ccc4ccccc4c3)c(-c3ccccc3)n2Cc2ccc3ccccc3c2)cc1,GI50,HL-60(TB) leukemia,150 nM
same,TGI,HL-60(TB) leukemia,400 nM
same,GI50,HOP-92 NSCLC,158 nM
same,TGI,HOP-92 NSCLC,592 nM
same,GI50,SW-620 colon,326 nM
same,TGI,SW-620 colon,1380 nM
same,GI50,NCI-H23 lung,224 nM
same,TGI,NCI-H23 lung,727 nM
same,GI50,K-562 leukemia,181 nM
same,TGI,K-562 leukemia,1230 nM
same,GI50,RPMI-8226 leukemia,56.8 nM
same,TGI,RPMI-8226 leukemia,505 nM
same,GI50,HS 578T breast,370 nM
same,TGI,HS 578T breast,1830 nM
same,GI50,CCRF-CEM leukemia,241 nM
same,TGI,CCRF-CEM leukemia,1240 nM
same,GI50,786-0 renal,352 nM
same,TGI,786-0 renal,1860 nM
same,GI50,UO-31 renal,672 nM
same,TGI,UO-31 renal,2940 nM
same,GI50,MOLT-4 leukemia,285 nM
same,TGI,MOLT-4 leukemia,1130 nM
same,GI50,PC-3 prostate,200 nM
same,TGI,PC-3 prostate,862 nM
same,GI50,DU-145 prostate,365 nM
same,TGI,DU-145 prostate,1430 nM
same,GI50,ACHN renal,401 nM
same,TGI,ACHN renal,1390 nM
CN1CCN(Cc2ccc(NC(=O)c3cncc(C#Cc4cnc5ccc(NC6CCOCC6)nn45)c3)cc2C(F)(F)F)CC1,GI50,LOX IMVI melanoma,55.5 nM and 24.8 nM
same,TGI,LOX IMVI melanoma,140 nM and 172 nM
same,GI50,SR leukemia,35.5 nM
same,TGI,SR leukemia,506 nM and 351 nM
same,GI50,A498 renal,161 nM and 214 nM
same,TGI,A498 renal,425 nM and 366 nM
same,GI50,HL-60(TB) leukemia,139 nM and 43.2 nM
same,TGI,HL-60(TB) leukemia,384 nM and 336 nM
same,GI50,NCI-H226 lung,67.5 nM
same,TGI,NCI-H226 lung,5790 nM
same,GI50,NCI-H522 lung,42.3 nM and 20.2 nM
same,TGI,NCI-H522 lung,116 nM and 137 nM
same,GI50,SNB-19 CNS,137 nM and 174 nM
same,TGI,SNB-19 CNS,4370 nM and 882 nM
same,GI50,HOP-92 NSCLC,36.7 nM and 15.6 nM
same,TGI,HOP-92 NSCLC,175 nM and 69.4 nM
same,GI50,BT-549 breast,120 nM and 275 nM
same,TGI,BT-549 breast,770 nM and 860 nM
same,GI50,IGROV1 ovarian,84.7 nM and 20.8 nM
same,TGI,IGROV1 ovarian,321 nM and 212 nM
same,GI50,OVCAR-3 ovarian,135 nM and 70.3 nM
same,TGI,OVCAR-3 ovarian,752 nM and 300 nM
same,GI50,HCC-2998 colon,226 nM and 189 nM
same,TGI,HCC-2998 colon,2460 nM and 519 nM
same,GI50,SK-MEL-2 melanoma,95.1 nM and 111 nM
same,TGI,SK-MEL-2 melanoma,197 nM and 246 nM
same,GI50,SW-620 colon,76.6 nM and 21.3 nM
same,TGI,SW-620 colon,1640 nM and 167 nM
same,GI50,SF-268 CNS,74.3 nM and 42.9 nM
same,TGI,SF-268 CNS,930 nM and 293 nM
same,GI50,OVCAR-4 ovarian,157 nM and 102 nM
same,TGI,OVCAR-4 ovarian,5950 nM and 733 nM
same,GI50,NCI-H23 lung,114 nM
same,TGI,NCI-H23 lung,529 nM
same,GI50,KM12 colon,5 nM
same,TGI,KM12 colon,667 nM and 389 nM
same,GI50,HCT-15 colon,324 nM and 205 nM
same,TGI,HCT-15 colon,5100 nM and 667 nM
same,GI50,MALME-3M melanoma,99.6 nM and 78 nM
same,TGI,MALME-3M melanoma,588 nM and 246 nM
same,GI50,M14 melanoma,66.4 nM and 49.4 nM
same,TGI,M14 melanoma,156 nM and 200 nM
same,GI50,HOP-62 NSCLC,59.9 nM and 43.3 nM
same,TGI,HOP-62 NSCLC,507 nM and 300 nM
same,GI50,EKVX NSCLC,98.8 nM and 102 nM
same,TGI,EKVX NSCLC,903 nM and 591 nM
same,GI50,CAKI-1 renal,98.7 nM and 39.5 nM
same,GI50,RXF 393 renal,58.9 nM and 39.5 nM
same,TGI,RXF 393 renal,174 nM and 180 nM
same,GI50,TK-10 renal,156 nM
same,TGI,TK-10 renal,759 nM
same,GI50,HT29 colon,115 nM and 70.4 nM
same,TGI,HT29 colon,506 nM and 501 nM
same,GI50,K-562 leukemia,5 nM
same,TGI,K-562 leukemia,741 nM and 108 nM
same,GI50,RPMI-8226 leukemia,136 nM and 123 nM
same,TGI,RPMI-8226 leukemia,434 nM and 456 nM
same,GI50,SF-295 CNS,63.2 nM and 208 nM
same,TGI,SF-295 CNS,3810 nM and 812 nM
same,GI50,SK-MEL-28 melanoma,179 nM and 155 nM
same,TGI,SK-MEL-28 melanoma,986 nM and 344 nM
same,GI50,HS 578T breast,54.2 nM and 31.7 nM
same,TGI,HS 578T breast,368 nM and 335 nM
same,GI50,NCI-H460 lung,62.7 nM and 33.9 nM
same,TGI,NCI-H460 lung,837 nM and 197 nM
same,GI50,CCRF-CEM leukemia,20.5 nM
same,GI50,COLO 205 colon,24.6 nM and 33.6 nM
same,TGI,COLO 205 colon,90.7 nM and 127 nM
same,GI50,A549 NSCLC,84.1 nM and 74.8 nM
same,TGI,A549 NSCLC,459 nM and 671 nM
same,GI50,U251 CNS,125 nM and 134 nM
same,TGI,U251 CNS,610 nM and 349 nM
same,GI50,NCI/ADR-RES ovarian,2640 nM and 1670 nM
same,TGI,NCI/ADR-RES ovarian,10900 nM and 4620 nM
same,GI50,SN12C renal,24.1 nM and 21.5 nM
same,TGI,SN12C renal,804 nM and 549 nM
same,GI50,SK-OV-3 ovarian,116 nM
same,TGI,SK-OV-3 ovarian,439 nM
same,GI50,HCT-116 colon,71.6 nM and 18.3 nM
same,TGI,HCT-116 colon,265 nM and 455 nM
same,GI50,UACC-62 melanoma,120 nM and 145 nM
same,TGI,UACC-62 melanoma,685 nM and 323 nM
same,GI50,786-0 renal,202 nM and 90 nM
same,TGI,786-0 renal,742 nM and 355 nM
same,GI50,MCF7 breast,41.5 nM
same,TGI,MCF7 breast,543 nM and 377 nM
same,GI50,SK-MEL-5 melanoma,296 nM and 158 nM
same,TGI,SK-MEL-5 melanoma,1030 nM and 312 nM
same,GI50,OVCAR-5 ovarian,125 nM and 149 nM
same,TGI,OVCAR-5 ovarian,752 nM and 773 nM
same,GI50,MDA-MB-231 breast,48.2 nM and 19.6 nM
same,TGI,MDA-MB-231 breast,219 nM and 241 nM
same,GI50,UO-31 renal,584 nM and 235 nM
same,TGI,UO-31 renal,3050 nM and 749 nM
same,GI50,UACC-257 melanoma,203 nM and 191 nM
same,TGI,UACC-257 melanoma,1420 nM and 614 nM
same,GI50,MOLT-4 leukemia,42 nM
same,TGI,MOLT-4 leukemia,1140 nM and 612 nM
same,GI50,OVCAR-8 ovarian,107 nM and 65.2 nM
same,TGI,OVCAR-8 ovarian,645 nM and 495 nM
same,GI50,SF-539 CNS,17.6 nM and 17.5 nM
same,TGI,SF-539 CNS,83.2 nM and 112 nM
same,GI50,PC-3 prostate,108 nM and 114 nM
same,TGI,PC-3 prostate,5340 nM and 1160 nM
same,GI50,DU-145 prostate,125 nM and 60.9 nM
same,TGI,DU-145 prostate,2160 nM and 431 nM
same,GI50,T-47D breast,165 nM and 167 nM
same,TGI,T-47D breast,1480 nM and 973 nM
same,GI50,SNB-75 CNS,67.8 nM
same,TGI,SNB-75 CNS,198 nM and 22.4 nM
same,GI50,ACHN renal,161 nM and 155 nM
same,TGI,ACHN renal,736 nM and 965 nM
same,GI50,MDA-MB-435,119 nM and 63 nM
same,TGI,MDA-MB-435,761 nM and 268 nM

# Reference: PubChem BioAssay (NCI)
